In patent US12390441B2, “Immunomodulating o-het/aryl azalides” (Zoetis Services LLC, priority 2020, dated 2025):
pIC50: −log10 of the molar value.

How the values were obtained:
Assay in all cases: Whole blood assay, LPS stimulation, MSD cytokine detection
TNF-α = format: cell-based; settings: fresh whole bovine blood
IL-1β = format: cell-based, bovine; settings: fresh whole bovine blood, LPS stimulation; drug concentration giving overstimulation (OS) of IL-1β
IL-6 = format: cell-based; settings: fresh whole bovine blood

SMILES | pIC50 (TNF-α) | pIC50 (IL-6) | pIC50 (TNF-α; Bos taurus) | pIC50 (IL-6; Bos taurus) | IL-1ß OS of LPS (IL-1β)
CC[C@H]1OC(=O)[C@H](C)[C@@H](O[C@H]2C[C@@](C)(OC)[C@@H](O)[C@H](C)O2)[C@H](C)[C@@H](O[C@@H]2O[C@H](C)C[C@H](NC)[C@H]2Oc2ccccc2C#N)[C@](C)(O)C[C@@H](C)CN(C)[C@H](C)[C@@H](O)[C@]1(C)O [Example A-36] | 4.89 | 4.89 | – | – | 100 µM
CC[C@H]1OC(=O)[C@H](C)[C@@H](O[C@H]2C[C@@](C)(OC)[C@@H](O)[C@H](C)O2)[C@H](C)[C@@H](O[C@@H]2O[C@H](C)C[C@H](NC)[C@H]2Oc2cccc(S(=O)(=O)CC)c2)[C@](C)(O)C[C@@H](C)CN(C)[C@H](C)[C@@H](O)[C@]1(C)O [Example A-41] | 5.30 | 4.72 | – | – | 16 µM
CC[C@H]1OC(=O)[C@H](C)[C@@H](O[C@H]2C[C@@](C)(OC)[C@@H](O)[C@H](C)O2)[C@H](C)[C@@H](O[C@@H]2O[C@H](C)C[C@H](N(C)C)[C@H]2Oc2ccc(F)c(C#N)c2)[C@](C)(O)C[C@@H](C)CN(C)[C@H](C)[C@@H](O)[C@]1(C)O [Example A-25] | 5.52 | 4.92 | – | – | 16 µM
CC[C@H]1OC(=O)[C@H](C)[C@@H](O)[C@H](C)[C@@H](O[C@@H]2O[C@H](C)C[C@H](N(C)C(=O)N(C)C3CCC3)[C@H]2Oc2ccccc2)[C@](C)(O)C[C@@H](C)CN[C@H](C)[C@@H](O)[C@]1(C)O [Example C-21] | 4.55 | 4.74 | – | – | 8 µM
CC[C@H]1OC(=O)[C@H](C)[C@@H](O)[C@H](C)[C@@H](O[C@@H]2O[C@H](C)C[C@H](N(C)C(=O)N(C)c3ccccc3)[C@H]2Oc2ccc(Cl)nc2)[C@](C)(O)C[C@@H](C)CN[C@H](C)[C@@H](O)[C@]1(C)O [Example C-33] | 5.22 | > 6.00 | – | – | 16 µM
CC[C@H]1OC(=O)[C@H](C)[C@@H](O[C@H]2C[C@@](C)(OC)[C@](O)(CNn3ccnc3)[C@H](C)O2)[C@H](C)[C@@H](O[C@@H]2O[C@H](C)C[C@H](NC)[C@H]2Oc2ccccc2)[C@](C)(O)C[C@@H](C)CN[C@H](C)[C@@H](O)[C@]1(C)O [Example E-138] | 4.32 | 4.06 | – | – | 40 µM
CCCNC[C@]1(O)[C@H](C)O[C@@H](O[C@H]2[C@H](C)[C@@H](O[C@@H]3O[C@H](C)C[C@H](N(C)C)[C@H]3Oc3ccc4ncccc4c3)[C@](C)(O)C[C@@H](C)CN[C@H](C)[C@@H](O)[C@](C)(O)[C@@H](CC)OC(=O)[C@@H]2C)C[C@@]1(C)OC [Example E-69] | 4.72 | 4.17 | – | – | 16 µM
CC[C@H]1OC(=O)[C@H](C)[C@@H](O)[C@H](C)[C@@H](O[C@@H]2O[C@H](C)C[C@H](N(C)C(=O)N3CCOc4ccccc43)[C@H]2Oc2ccccc2)[C@](C)(O)C[C@@H](C)CN[C@H](C)[C@@H](O)[C@]1(C)O [Example D-3] | 4.70 | 4.30 | – | – | 16 µM
CC[C@H]1OC(=O)[C@H](C)[C@@H](O)[C@H](C)[C@@H](O[C@@H]2O[C@H](C)C[C@H](N(C)C(=O)N(C)c3ccccc3)[C@H]2Oc2ccccc2Cl)[C@](C)(O)C[C@@H](C)CN[C@H](C)[C@@H](O)[C@]1(C)O [Example C-38] | 5.30 | 4.59 | – | – | 16 µM
CC[C@H]1OC(=O)[C@H](C)[C@@H](O[C@H]2C[C@@](C)(OC)[C@@H](O)[C@H](C)O2)[C@H](C)[C@@H](O[C@@H]2O[C@H](C)C[C@H](NC)[C@H]2Oc2ccc(OC)c(OC(C)C)c2)[C@](C)(O)C[C@@H](C)CN(C)[C@H](C)[C@@H](O)[C@]1(C)O [Example A-34] | 5.40 | 4.68 | – | – | >250 µM
CC[C@H]1OC(=O)[C@H](C)[C@@H](O)[C@H](C)[C@@H](O[C@@H]2O[C@H](C)C[C@H](N(C)C(=O)N(C)c3ccccc3)[C@H]2Oc2cc(F)c(OC)c(F)c2)[C@](C)(O)C[C@@H](C)CN(C)[C@H](C)[C@@H](O)[C@]1(C)O [Example C-49] | 3.74 | 3.87 | – | – | 6 µM
CC[C@H]1OC(=O)[C@H](C)[C@@H](O)[C@H](C)[C@@H](O[C@@H]2O[C@H](C)C[C@H](N(C)C(=O)N(C)c3ccccc3)[C@H]2Oc2ccc3ncccc3c2)[C@](C)(O)C[C@@H](C)CN(C)[C@H](C)[C@@H](O)[C@]1(C)O [Example C-35] | 4.92 | 4.74 | – | – | >250 µM
CC[C@H]1OC(=O)[C@H](C)[C@@H](O)[C@H](C)[C@@H](O[C@@H]2O[C@H](C)C[C@H](N(C)C(=O)N(C)c3ccccc3)[C@H]2Oc2ccc(OC)c(OC(C)C)c2)[C@](C)(O)C[C@@H](C)CN[C@H](C)[C@@H](O)[C@]1(C)O [Example C-34] | 4.55 | 4.80 | – | – | 16 µM

More lines, main results first:

pIC50 (TNF-α) | pIC50 (IL-6) | pIC50 (TNF-α; Bos taurus) | pIC50 (IL-6; Bos taurus) | SMILES | IL-1ß OS of LPS (IL-1β)
5.10 | 4.06 | – | – | CC[C@H]1OC(=O)[C@H](C)[C@@H](O[C@H]2C[C@@](C)(OC)[C@](O)(CNCCN(C)C)[C@H](C)O2)[C@H](C)[C@@H](O[C@@H]2O[C@H](C)C[C@H](N(C)C)[C@H]2Oc2ccccc2)[C@](C)(O)C[C@@H](C)CN[C@H](C)[C@@H](O)[C@]1(C)O [Example E-144] | 40 µM
4.49 | 4.15 | – | – | CC[C@H]1OC(=O)[C@H](C)[C@@H](O[C@H]2C[C@@](C)(OC)[C@](O)(CNCCOC)[C@H](C)O2)[C@H](C)[C@@H](O[C@@H]2O[C@H](C)C[C@H](NC)[C@H]2Oc2ccccc2)[C@](C)(O)C[C@@H](C)CN[C@H](C)[C@@H](O)[C@]1(C)O [Example E-130] | 40 µM
4.46 | 4.28 | – | – | CC[C@H]1OC(=O)[C@H](C)[C@@H](O[C@H]2C[C@@](C)(OC)[C@](O)(CNCCCOC)[C@H](C)O2)[C@H](C)[C@@H](O[C@@H]2O[C@H](C)C[C@H](NC)[C@H]2Oc2ccccc2)[C@](C)(O)C[C@@H](C)CN[C@H](C)[C@@H](O)[C@]1(C)O [Example E-131] | 100 µM
4.64 | 4.64 | – | – | CCCNC[C@]1(O)[C@H](C)O[C@@H](O[C@H]2[C@H](C)[C@@H](O[C@@H]3O[C@H](C)C[C@H](NC)[C@H]3Oc3ccc(OC)cc3)[C@](C)(O)C[C@@H](C)CN(C)[C@H](C)[C@@H](O)[C@](C)(O)[C@@H](CC)OC(=O)[C@@H]2C)C[C@@]1(C)OC [Example E-151] | 16 µM
5.30 | 5.00 | – | – | CC[C@H]1OC(=O)[C@H](C)[C@@H](O[C@H]2C[C@@](C)(OC)[C@](O)(CNCCOC)[C@H](C)O2)[C@H](C)[C@@H](O[C@@H]2O[C@H](C)C[C@H](N(C)C)[C@H]2Oc2ccc(F)cc2)[C@](C)(O)C[C@@H](C)CN[C@H](C)[C@@H](O)[C@]1(C)O [Example E-116] | 16 µM
– | – | 5.10 | 5.10 | CCCNC[C@]1(O)[C@H](C)O[C@@H](O[C@H]2[C@H](C)[C@@H](O[C@@H]3O[C@H](C)C[C@H](NCC(C)C)[C@H]3Oc3ccccc3)[C@](C)(O)C[C@@H](C)CN[C@H](C)[C@@H](O)[C@](C)(O)[C@@H](CC)OC(=O)[C@@H]2C)C[C@@]1(C)OC [Example E-155] | 6 µM
5.22 | 5.52 | – | – | CCCNC[C@]1(O)[C@H](C)O[C@@H](O[C@H]2[C@H](C)[C@@H](O[C@@H]3O[C@H](C)C[C@H](N(C)Cc4nccs4)[C@H]3Oc3ccccc3)[C@](C)(O)C[C@@H](C)CN[C@H](C)[C@@H](O)[C@](C)(O)[C@@H](CC)OC(=O)[C@@H]2C)C[C@@]1(C)OC [Example E-150] | 1 µM
4.80 | 4.27 | – | – | CCCNC[C@]1(O)[C@H](C)O[C@@H](O[C@H]2[C@H](C)[C@@H](O[C@@H]3O[C@H](C)C[C@H](NC)[C@H]3Oc3ccccc3OCC)[C@](C)(O)C[C@@H](C)CN[C@H](C)[C@@H](O)[C@](C)(O)[C@@H](CC)OC(=O)[C@@H]2C)C[C@@]1(C)OC [Example E-78] | 17 µM
4.68 | 4.74 | – | – | CCCNC[C@]1(O)[C@H](C)O[C@@H](O[C@H]2[C@H](C)[C@@H](O[C@@H]3O[C@H](C)C[C@H](NC)[C@H]3Oc3ccc(F)cc3)[C@](C)(O)C[C@@H](C)CN(C)[C@H](C)[C@@H](O)[C@](C)(O)[C@@H](CC)OC(=O)[C@@H]2C)C[C@@]1(C)OC [Example E-153] | 16 µM
5.10 | 5.00 | – | – | CCCNC[C@]1(O)[C@H](C)O[C@@H](O[C@H]2[C@H](C)[C@@H](O[C@@H]3O[C@H](C)C[C@H](N(CC)CC)[C@H]3Oc3ccccc3)[C@](C)(O)C[C@@H](C)CN[C@H](C)[C@@H](O)[C@](C)(O)[C@@H](CC)OC(=O)[C@@H]2C)C[C@@]1(C)OC [Example E-156] | 16 µM
5.40 | 4.74 | – | – | CC[C@H]1OC(=O)[C@H](C)[C@@H](O[C@H]2C[C@@](C)(OC)[C@](O)(CNC(C)C)[C@H](C)O2)[C@H](C)[C@@H](O[C@@H]2O[C@H](C)C[C@H](N(C)C)[C@H]2Oc2ccccc2)[C@](C)(O)C[C@@H](C)CN[C@H](C)[C@@H](O)[C@]1(C)O [Example E-142] | 16 µM
5.30 | 5.40 | – | – | CCCNC[C@]1(O)[C@H](C)O[C@@H](O[C@H]2[C@H](C)[C@@H](O[C@@H]3O[C@H](C)C[C@H](NC4CCCCC4)[C@H]3Oc3ccccc3)[C@](C)(O)C[C@@H](C)CN[C@H](C)[C@@H](O)[C@](C)(O)[C@@H](CC)OC(=O)[C@@H]2C)C[C@@]1(C)OC [Example E-154] | 1 µM
4.96 | 5.40 | – | – | CCCNC[C@]1(O)[C@H](C)O[C@@H](O[C@H]2[C@H](C)[C@@H](O[C@@H]3O[C@H](C)C[C@H](N(C)C(=O)N(C)C(C)C)[C@H]3Oc3ccccc3)[C@](C)(O)C[C@@H](C)CN[C@H](C)[C@@H](O)[C@](C)(O)[C@@H](CC)OC(=O)[C@@H]2C)C[C@@]1(C)OC [Example F-27] | 1 µM
